By IC50 is commonly meant the concentration needed to halve the response being measured.

Molecules are shown by their SMILES.

Common to all, as to type: cell-based
In one assay the test system is GLUT. Kind of assay: glycolysis assay (oligomycin + Cell Titer-Glo ATP readout) in HT1080 cells. The settings on record: 10 μM oligomycin, one hour, glycolytically-derived ATP. The source says: The combination of inhibitors of both oxidative phosphorylation and glycolysis synergistically suppress cellular ATP levels. Therefore, our assay utilizes the combination of our glucose uptake inhibitors with oligomycin, a well-characterized inhibitor of ATP synthase. Because oligomycin inhibits ATP derived from oxidative phosphorylation, any remaining ATP production is derived from glycolysis. By reading out cellular ATP levels using the Promega
Titer Glo kit, we can assess the extent of glycolysis inhibition by our glucose uptake inhibitors. Using this experimental set-up in HT1080 cancer cells, we determined the IC50 of glycolysis inhibition for the compounds.
(§1) Determination of glucose uptake/GLUT activity (glycolysis assay): HT1080 cells, DLD1 cells (WT and GLUT1−/−) and human CD4+ T cells were plated in 96-well plates. Cells were exposed to the combination of 10 μM Oligomycin (to block mitochondrial-derived ATP) and the glucose uptake inhibitors disclosed herein for one-hour, after which glycolytically-derived ATP was measured with the Cell Titer-Glo assay kit (Promega). Dose-response curves of the glucose uptake inhibitors disclosed herein were used to determine the IC50 for GLUT activity.
(In general: Cellular ATP, detected with luciferase, serves as a proxy for viable cell number.)

The next assay deals with T1, GLUT1 (Homo sapiens, UniProt P11166).
T1 construct: endogenous in cells; host or cells: DLD1 WT cancer cells
T1 sequence (P11166 1-492): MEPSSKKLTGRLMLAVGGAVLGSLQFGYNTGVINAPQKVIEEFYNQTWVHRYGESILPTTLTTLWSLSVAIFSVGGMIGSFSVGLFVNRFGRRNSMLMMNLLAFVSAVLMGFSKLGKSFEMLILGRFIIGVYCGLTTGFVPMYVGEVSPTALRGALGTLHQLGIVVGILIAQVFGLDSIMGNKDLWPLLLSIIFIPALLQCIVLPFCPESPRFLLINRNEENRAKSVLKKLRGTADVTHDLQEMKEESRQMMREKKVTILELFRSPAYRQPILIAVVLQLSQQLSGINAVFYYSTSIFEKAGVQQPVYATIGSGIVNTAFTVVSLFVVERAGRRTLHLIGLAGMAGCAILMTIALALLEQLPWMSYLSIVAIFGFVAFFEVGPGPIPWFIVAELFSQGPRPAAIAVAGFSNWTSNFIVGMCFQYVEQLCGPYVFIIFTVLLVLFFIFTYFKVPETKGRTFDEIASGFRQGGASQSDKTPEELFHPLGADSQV
Briefly: glycolysis assay in DLD1 WT cells (rely on GLUT1). Particulars: DLD1-WT cells; 10 μM oligomycin, one hour. How it is done: (§2) Cells were treated with GLUT inhibitors plus oligomycin and subsequently ATP levels were determined using Cell Titer Glo. […] FIG. 1B reports the IC50 of glycolysis inhibition for selected compounds.
(§3) Accordingly, we have investigated the use of inhibitors of GLUT transporters against activated pro-inflammatory immune cells, including but not limited to activated human CD4+ T cells. In order to understand what GLUT transporters are required to sustain glycolysis in activated T cells, we first utilized the syngeneic cancer cell lines DLD1 WT and DLD GLUT1−/− that rely on GLUT1 and GLUT3 expression, respectively, for glucose transport. Within this system, we have identified small molecules that simultaneously have the property of inhibiting both GLUT1 and GLUT3 mediated glucose transport. In addition, we have confirmed the GLUT1-selective nature of a published small molecule inhibitor of GLUT1 (Chem Med Chem. 2016 Oct. 19; 11(20):2261-2271).
as §1

Another assay deals with T2, GLUT3 (Homo sapiens, UniProt P11169).
T2 construct: endogenous in cells; host or cells: DLD1 GLUT1−/− (knock-out) cancer cells
T2 sequence (P11169 1-496): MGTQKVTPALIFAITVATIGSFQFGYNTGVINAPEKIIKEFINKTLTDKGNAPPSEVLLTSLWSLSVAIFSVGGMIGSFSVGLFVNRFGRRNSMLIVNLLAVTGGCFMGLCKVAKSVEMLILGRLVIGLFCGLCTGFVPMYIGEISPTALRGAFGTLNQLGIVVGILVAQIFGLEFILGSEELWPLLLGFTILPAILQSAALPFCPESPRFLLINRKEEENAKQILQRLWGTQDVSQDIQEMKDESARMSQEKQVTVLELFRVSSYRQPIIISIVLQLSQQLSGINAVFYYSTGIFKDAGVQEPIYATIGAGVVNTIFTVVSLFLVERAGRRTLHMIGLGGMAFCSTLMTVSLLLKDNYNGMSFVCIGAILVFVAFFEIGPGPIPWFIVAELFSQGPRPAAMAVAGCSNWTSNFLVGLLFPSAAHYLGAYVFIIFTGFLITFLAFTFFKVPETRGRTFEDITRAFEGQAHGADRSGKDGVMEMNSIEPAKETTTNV
Briefly: glycolysis assay in DLD1 GLUT1−/− cells (rely on GLUT3). Particulars: DLD1-KO (GLUT1−/−) cells; 10 μM oligomycin, one hour. How it is done: as §2, §3, §1

`CCOc1ccc2nc(-c3cccc(OCC(=O)NC4CC4)c3)nc(Nc3ccc(-c4cn[nH]c4)cc3)c2c1` [Ex. 1, 2-(3-(4-((4-(1H-pyrazol-4-yl)phenyl)amino)-6-ethoxyquinazolin-2-yl)phenoxy)-N-cyclopropylacetamide]: the results for the 50% inhibitory concentration (IC50) in the assay on GLUT, on GLUT1 and at GLUT3 were 242 nM, 52 nM and 129 nM, respectively.

Consider `CCOc1ccc2nc(-c3cccc(OCC(=O)NC(C)(C)C)c3)nc(Nc3ccc(-c4cn[nH]c4)cc3)c2c1` [Ex. 3, 2-(3-(4-((4-(1H-pyrazol-4-yl)phenyl)amino)-6-ethoxyquinazolin-2-yl)phenoxy)-N-(tert-butyl)acetamide], for which the values for the IC50 in the assay on GLUT, on GLUT1 and on GLUT3 were 44 nM, 59.6 nM and 33.6 nM, respectively.

On to `CCOc1ccc2nc(-c3cccc(OCC(=O)NC(C)(C)CC)c3)nc(Nc3ccc(-c4cn[nH]c4)cc3)c2c1` [Ex. 4, 2-(3-(4-((4-(1H-pyrazol-4-yl)phenyl)amino)-6-ethoxyquinazolin-2-yl)phenoxy)-N-(tert-pentyl)acetamide], for which the IC50 in the assay with GLUT is 50 nM; at GLUT1, 86 nM; at GLUT3, 148 nM.

Consider `CCOc1ccc2nc(-c3cccc(OCC(=O)NC4CCCC4)c3)nc(Nc3ccc(-c4cn[nH]c4)cc3)c2c1` [Ex. 5, 2-(3-(4-((4-(1H-pyrazol-4-yl)phenyl)amino)-6-ethoxyquinazolin-2-yl)phenoxy)-N-cyclopentylacetamide], for which the values for the half-maximal inhibitory concentration (IC50) with GLUT, at GLUT1 and on GLUT3 were 92 nM, 81 nM and 104 nM, respectively.

Consider `CCOc1ccc2nc(-c3cccc(OCC(=O)NC4CCC4)c3)nc(Nc3ccc(-c4cn[nH]c4)cc3)c2c1` [Ex. 6, 2-(3-(4-((4-(1H-pyrazol-4-yl)phenyl)amino)-6-ethoxyquinazolin-2-yl)phenoxy)-N-cyclobutylacetamide], for which the IC50 in the assay with GLUT worked out at 141 nM; at GLUT1, 94 nM; at GLUT3 it was 120 nM.

Turning to `CCOc1ccc2nc(-c3cccc(OCC(=O)NC(CC)CC)c3)nc(Nc3ccc(-c4cn[nH]c4)cc3)c2c1` [Ex. 7, 2-(3-(4-((4-(1H-pyrazol-4-yl)phenyl)amino)-6-ethoxyquinazolin-2-yl)phenoxy)-N-(pentan-3-yl)acetamide], the 50% inhibitory concentration (IC50) with GLUT turned out to be 128 nM; at GLUT1, 98 nM; on GLUT3 it was 233 nM.

In the case of `COc1ccc2nc(-c3cccc(OCC(=O)NC(C)C)c3)nc(Nc3ccc(-c4cn[nH]c4)cc3)c2c1` [Ex. 8, 2-(3-(4-((4-(1H-pyrazol-4-yl)phenyl)amino)-6-methoxyquinazolin-2-yl)phenoxy)-N-isopropylacetamide], the IC50 with GLUT came out at 173 nM; at GLUT1, 261 nM; at GLUT3, 97.6 nM.

On to `COc1ccc2nc(-c3cccc(OCC(=O)NC4CC4)c3)nc(Nc3ccc(-c4cn[nH]c4)cc3)c2c1` [Ex. 9, 2-(3-(4-((4-(1H-pyrazol-4-yl)phenyl)amino)-6-methoxyquinazolin-2-yl)phenoxy)-N-cyclopropylacetamide], for which the values for the IC50 with GLUT, at GLUT1 and on GLUT3 were 367 nM, 529 nM and 76.1 nM, respectively.

As to `COc1ccc2nc(-c3cccc(OCC(=O)NC4CCCC4)c3)nc(Nc3ccc(-c4cn[nH]c4)cc3)c2c1` [Ex. 10, 2-(3-(4-((4-(1H-pyrazol-4-yl)phenyl)amino)-6-methoxyquinazolin-2-yl)phenoxy)-N-cyclopentylacetamide], the half-inhibitory concentration (IC50) in the assay on GLUT amounted to 58.9 nM; at GLUT1, 40.5 nM; on GLUT3, 110 nM.

Regarding `COc1ccc2nc(-c3cc(F)cc(OCC(=O)NC(C)C)c3)nc(Nc3ccc(-c4cn[nH]c4)cc3)c2c1` [Ex. 11, 2-(3-(4-((4-(1H-pyrazol-4-yl)phenyl)amino)-6-methoxyquinazolin-2-yl)-5-fluorophenoxy)-N-isopropylacetamide], the half-inhibitory concentration (IC50) came to 1350 nM with GLUT, 3480 nM at GLUT1 and 325 nM at GLUT3.

For the molecule `CCCNC(=O)COc1cccc(-c2nc(Nc3ccc(-c4cn[nH]c4)cc3)c3cc(OC)ccc3n2)c1` [Ex. 12, 2-(3-(4-((4-(1H-pyrazol-4-yl)phenyl)amino)-6-methoxyquinazolin-2-yl)phenoxy)-N-propylacetamide], the IC50 turned out to be 248 nM with GLUT, 598 nM at GLUT1 and 166 nM at GLUT3.

As for `COc1ccc2nc(-c3cccc(OCC(=O)NC(C)(C)C)c3)nc(Nc3ccc(-c4cn[nH]c4)cc3)c2c1` [Ex. 13, 2-(3-(4-((4-(1H-pyrazol-4-yl)phenyl)amino)-6-methoxyquinazolin-2-yl)phenoxy)-N-(tert-butyl)acetamide], the IC50 with GLUT stood at 54 nM; on GLUT1, 86.9 nM; at GLUT3, 38.9 nM.

Regarding `COc1ccc2nc(-c3cccc(OCC(=O)NCC(C)C)c3)nc(Nc3ccc(-c4cn[nH]c4)cc3)c2c1` [Ex. 14, 2-(3-(4-((4-(1H-pyrazol-4-yl)phenyl)amino)-6-methoxyquinazolin-2-yl)phenoxy)-N-isobutylacetamide], the figures for the IC50 with GLUT, at GLUT1 and on GLUT3 were 189 nM, 47 nM and 134 nM, respectively.

For the molecule `COc1ccc2nc(-c3cccc(OCC(=O)NC4CC(F)(F)C4)c3)nc(Nc3ccc(-c4cn[nH]c4)cc3)c2c1` [Ex. 15, 2-(3-(4-((4-(1H-pyrazol-4-yl)phenyl)amino)-6-methoxyquinazolin-2-yl)phenoxy)-N-(3,3-difluorocyclobutyl)acetamide], the results for the half-maximal inhibitory concentration (IC50) with GLUT, on GLUT1 and on GLUT3 were 183 nM, 352 nM and 86.6 nM, respectively.

Regarding `CCCNC(=O)COc1cccc(-c2nc(Nc3ccc(-c4cn[nH]c4)cc3)c3cc(OCC)ccc3n2)c1` [Ex. 16, 2-(3-(4-((4-(1H-pyrazol-4-yl)phenyl)amino)-6-ethoxyquinazolin-2-yl)phenoxy)-N-propylacetamide], the figures for the IC50 with GLUT, on GLUT1 and at GLUT3 were 536 nM, 1020 nM and 127 nM, respectively.

With `CCOc1ccc2nc(-c3cccc(OCC(=O)NCC(C)C)c3)nc(Nc3ccc(-c4cn[nH]c4)cc3)c2c1` [Ex. 17, 2-(3-(4-((4-(1H-pyrazol-4-yl)phenyl)amino)-6-ethoxyquinazolin-2-yl)phenoxy)-N-isobutylacetamide], the IC50 in the assay on GLUT amounted to 166 nM; at GLUT1 it was 334 nM; at GLUT3 it was 92.2 nM.

Take `CCOc1ccc2nc(-c3cccc(OCC(=O)NC(C)CC)c3)nc(Nc3ccc(-c4cn[nH]c4)cc3)c2c1` (stereo not drawn) [Ex. 18, 2-(3-(4-((4-(1H-pyrazol-4-yl)phenyl)amino)-6-ethoxyquinazolin-2-yl)phenoxy)-N-(sec-butyl)acetamide]: the IC50 was determined as 89 nM in the assay on GLUT, 99.5 nM at GLUT1 and 43.9 nM on GLUT3.

Take `CCOc1ccc2nc(-c3cccc(OCC(=O)NC4CC(F)(F)C4)c3)nc(Nc3ccc(-c4cn[nH]c4)cc3)c2c1` [Ex. 19, 2-(3-(4-((4-(1H-pyrazol-4-yl)phenyl)amino)-6-ethoxyquinazolin-2-yl)phenoxy)-N-(3,3-difluorocyclobutyl)acetamide]: the half-inhibitory concentration (IC50) in the assay on GLUT is 169 nM; at GLUT1, 257 nM; at GLUT3, 66.1 nM.

Values taken from patent US11071735B2, “Treatment of inflammatory conditions and autoimmune diseases with glucose uptake inhibitors” (Kadmon Corporation, LLC, priority 2017, dated 2021).
